Test results as given in publication PMC10814725, “In Vitro Anti-Inflammatory Study of Limonoids Isolated from Chisocheton Plants” (Current Issues in Molecular Biology, 2024).
Like-named read-outs stand apart in the source and are kept apart here.

Legend:
Type in all cases: cell-based
[1] = Cytotoxic effects against RAW264.7 macrophage (cell viability); conditions: mouse
Description: (§1) The viability of HEK-Blue^TM hTLR4, […], and THP-1 cells was evaluated using the Dojindo Cell Counting Kit-8 (CCK-8) according to the manufacturer’s instructions. The viability of HEK-Blue^TM hTLR4 and THP-1 cells was assessed under identical conditions to the corresponding assay treatments. HEK-Blue^TM hTLR4 cells (2 × 10^4 cells/well) were seeded in 96-well plates and serum-starved for 24 h at 37 °C in a 5% CO2 atmosphere. After incubation, the culture medium was aspirated, and the cells were washed with saline. High-glucose D-MEM supplemented with 0.1% FBS and 1% penicillin–streptomycin was added and pretreated with or without the 17 limonoids at a concentration of 20 µM for 1 h, followed by LPS addition at a concentration of 10 ng/mL. After 18 h of incubation, a 10% (v/v) CCK-8 solution was added to each well and incubated at 37 °C for 1 h, and cell viability was calculated.

[2] = Cell viability by CCK-8, THP-1 cells; conditions: human, PMA-differentiated THP-1 cells, 10 µM, 18 h
Description: as §1
The THP-1 cells at 5 × 10^4 cells/well were differentiated for 24 h in the presence of PMA (0.5 μM solution in medium). After 24 h of incubation, the culture medium was removed from the 96-well plate and the cells were washed with PBS. Fresh RPMI-1640 medium supplemented with 0.1% FBS and 1% penicillin–streptomycin was added to each well and incubated at 37 °C for overnight. The cells were pretreated with 17 limonoids at the corresponding concentration for 1 h followed by the addition of LPS (10 ng/mL) and incubated at 37 °C for 18 h. Furthermore, CCK-8 solution was added to each well with a final concentration was 10% (v/v) and incubated at 37 °C. After 1 h, the absorbance of each well was measured at […] by using a microplate reader (BioTek Cytation 5 Cell Imaging Multimode Reader). Cell viability was calculated using the following formula: % Cell viability=(Absorbance of sample−Absorbance of Background)/(Absorbance of control−Absorbance of Background)×100 where the absorbance of the sample is the absorbance of cells treated by the compound with or without LPS, the absorbance of the control is the absorbance of LPS (−)-treated cells, and the background absorbance is the absorbance of a well containing only the medium. The results were expressed as 100% cell viability.

[3] = Cell viability by CCK-8, HEK-Blue hTLR4 cells; conditions: human
Description: as §1

[4] = RAW264.7 macrophages, 5 µM, read-out: Viability cell (%) RAW 264.7 5 µM
[5] = RAW264.7 macrophages, 10 µM, read-out: Viability cell (%) RAW 264.7 10 µM
[6] = RAW264.7 macrophages, 20 µM, read-out: Viability cell (%) RAW 264.7 20 µM
[7] = LPS 10 ng/mL, read-out: Viability Cell (%) THP-1 LPS-Induced (10 ng/mL)
[8] = without LPS, read-out: Viability Cell (%) THP-1 Without LPS
[9] = Viability Cell (%) HEK-Blue hTLR4 LPS-Induced (10 ng/mL)
[10] = Viability Cell (%) HEK-Blue hTLR4 Without LPS

Structure (SMILES) | viability at 5 µM [1, 4] [%] | viability at 10 µM [1, 5] [%] | viability at 20 µM [1, 6] [%] | viability at 18 h, 10 µM [2, 7] [%] | viability at 18 h, 10 µM [2, 8] [%] | viability at 18 h, 20 µM ([3]; HEK-Blue hTLR4 cells, 20 µM, 18 h, LPS 10 ng/mL, read-out: Viability Cell (%) HEK-Blue hTLR4 LPS-Induced (10 ng/mL)) [%] | viability at 18 h, 20 µM ([3]; HEK-Blue hTLR4 cells, 20 µM, 18 h, without LPS, read-out: Viability Cell (%) HEK-Blue hTLR4 Without LPS) [%] | viability at 5 µM ([1]; 5 µM, read-out: Viability cell (%) RAW 264.7 5 µM) [%] | viability at 10 µM ([1]; 10 µM, read-out: Viability cell (%) RAW 264.7 10 µM) [%] | viability at 20 µM ([1]; 20 µM, read-out: Viability cell (%) RAW 264.7 20 µM) [%] | viability at 18 h, 20 µM ([3]; 20 µM, 18 h, LPS 10 ng/mL, read-out: Viability Cell (%) HEK-Blue hTLR4 LPS-Induced (10 ng/mL)) [%] | viability at 18 h, 20 µM ([3]; 20 µM, 18 h, without LPS, read-out: Viability Cell (%) HEK-Blue hTLR4 Without LPS) [%] | viability at 5 µM [1] [%] | viability at 10 µM [1] [%] | viability at 20 µM [1] [%] | viability at 18 h, 20 µM [3, 9] [%] | viability at 18 h, 20 µM [3, 10] [%]
CC(=O)O[C@H]1[C@@H](OC(C)=O)[C@]2(C)[C@H](CCC3=C(c4ccoc4)C[C@@H](O)[C@]32C)[C@@]2(C)C=CC(=O)C(C)(C)[C@H]12 [Compound 8, toonaciliatone C] | 89.5 ± 9.38 | 94.75 ± 0.32 | 87.5 ± 3.33 | 94 ± 9.84 | > 99.9 | 88 ± 6.37 | > 99.9 |  |  |  |  |  |  |  |  |  | 
COc1cc([C@@H]2c3cc4c(cc3[C@@H](O[C@@H]3O[C@@H]5CO[C@@H](C)O[C@H]5[C@H](O)[C@H]3O)[C@H]3COC(=O)[C@H]23)OCO4)cc(OC)c1O [Etoposide, reference compound] | 67.5 ± 2.36 | 54.8 ± 2.58 | 38.9 ± 3.19 |  |  |  |  |  |  |  |  |  |  |  |  |  | 
CC(=O)O[C@H]1[C@@H](OC(C)=O)[C@@]2(C)C3=CC[C@@H](C4=CCOC4=O)[C@]3(C)CC[C@@H]2[C@@]2(C)C=CC(=O)C(C)(C)[C@H]12 [Compound 6, lasiocarpine A] |  |  |  | > 99.9 | 90.7 ± 3.82 |  |  | 103 ± 6.05 | > 99.9 | 96.7 ± 2.14 | 58.3 ± 1.89 | 77.1 ± 2.13 |  |  |  |  | 
CC(=O)O[C@H]1[C@@H](OC(C)=O)[C@@]2(C)C3C(=O)C[C@@H](c4ccoc4)[C@]3(C)CC[C@@H]2[C@@]2(C)C=CC(=O)C(C)(C)[C@H]12 (stereo partly drawn) [Compound 7, toonaciliatone F] |  |  |  | > 99.9 | > 99.9 |  |  |  |  |  |  |  | > 99.9 | > 99.9 | 95.9 ± 2.19 | 87.3 ± 4 | 92.9 ± 2.11
CC(=O)O[C@H]1[C@@H](OC(C)=O)[C@]2(C)[C@H](CC[C@@]3(C)[C@H](c4ccoc4)C(=O)[C@H]4O[C@@]423)[C@@]2(C)C=CC(=O)C(C)(C)[C@H]12 [Compound 10, 6α-acetylepoxyazadirone] |  |  |  | > 99.9 | > 99.9 |  |  |  |  |  |  |  | 93.2 ± 4.2 | 82.1 ± 1.31 | 86.1 ± 4.07 | > 99.9 | > 99.9
CC(=O)O[C@@H]1C[C@H]2C(C)(C)C(=O)C=C[C@]2(C)[C@H]2CC[C@]3(C)C(C(=O)C[C@H]3c3ccoc3)[C@@]21C (stereo partly drawn) [Compound 2, 7α-acetylneotrichilenone] |  |  |  | > 99.9 | > 99.9 |  |  |  |  |  |  |  | 96.2 ± 3.67 | > 99.9 | > 99.9 | 75.5 ± 13.8 | 61.2 ± 1.22
CC1(C)C(=O)C=C[C@]2(C)[C@H]3CC[C@]4(C)C(C(=O)C[C@H]4c4ccoc4)[C@]3(C)[C@H](O)C[C@@H]12 (stereo partly drawn) [Compound 1, 7α-hydroxyneotrichilenone] |  |  |  | > 99.9 | > 99.9 |  |  |  |  |  |  |  | > 99.9 | > 99.9 | > 99.9 | > 99.9 | > 99.9
